This note sets out measurements from paper PMC8000448, “Inhibitory Effects of Schisandra Lignans on Cytochrome P450s and Uridine 5′-Diphospho-Glucuronosyl Transferases in Human Liver Microsomes” (Pharmaceutics, 2021).

In one data set the target is T1, CYP2C8 (Homo sapiens, UniProt P10632).
T1 construct: pooled HLMs (0.25 mg/mL); tissue XenoTech H2630; host or cells: pooled human liver microsomes, mixed gender
T1 sequence (P10632 1-490): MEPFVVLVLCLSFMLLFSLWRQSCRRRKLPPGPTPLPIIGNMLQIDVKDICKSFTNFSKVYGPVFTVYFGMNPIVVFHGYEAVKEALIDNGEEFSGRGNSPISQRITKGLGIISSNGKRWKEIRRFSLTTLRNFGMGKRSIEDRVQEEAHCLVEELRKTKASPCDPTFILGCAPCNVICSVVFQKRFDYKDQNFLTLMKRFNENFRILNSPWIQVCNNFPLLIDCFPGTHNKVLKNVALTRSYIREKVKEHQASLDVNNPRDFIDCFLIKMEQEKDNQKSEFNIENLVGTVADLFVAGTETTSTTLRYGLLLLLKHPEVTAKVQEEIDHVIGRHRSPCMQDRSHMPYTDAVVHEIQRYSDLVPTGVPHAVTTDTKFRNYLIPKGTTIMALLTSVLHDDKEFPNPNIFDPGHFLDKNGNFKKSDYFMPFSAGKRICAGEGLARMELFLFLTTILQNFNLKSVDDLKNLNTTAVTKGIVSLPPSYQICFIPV
In words: CYP2C8 inhibition in HLMs (amodiaquine). The format is in vitro ADME. As to the method:
(§1) Lignans were first dissolved in methanol. […] All microsomal incubations were performed in triplicate.

The next data set concerns the target T2, CYP2E1 (Homo sapiens, UniProt P05181).
T2 construct: pooled HLMs (0.25 mg/mL); tissue XenoTech H2630; host or cells: pooled human liver microsomes, mixed gender
In words: CYP2E1 inhibition in HLMs (chlorzoxazone). The format is in vitro ADME. Here is the method:
as §1

In the next data set the target is T3, UGT1A1 (Homo sapiens, UniProt P22309).
T3 construct: pooled HLMs (0.25 mg/mL); tissue XenoTech H2630; host or cells: pooled human liver microsomes, mixed gender
T3 sequence (P22309 26-533): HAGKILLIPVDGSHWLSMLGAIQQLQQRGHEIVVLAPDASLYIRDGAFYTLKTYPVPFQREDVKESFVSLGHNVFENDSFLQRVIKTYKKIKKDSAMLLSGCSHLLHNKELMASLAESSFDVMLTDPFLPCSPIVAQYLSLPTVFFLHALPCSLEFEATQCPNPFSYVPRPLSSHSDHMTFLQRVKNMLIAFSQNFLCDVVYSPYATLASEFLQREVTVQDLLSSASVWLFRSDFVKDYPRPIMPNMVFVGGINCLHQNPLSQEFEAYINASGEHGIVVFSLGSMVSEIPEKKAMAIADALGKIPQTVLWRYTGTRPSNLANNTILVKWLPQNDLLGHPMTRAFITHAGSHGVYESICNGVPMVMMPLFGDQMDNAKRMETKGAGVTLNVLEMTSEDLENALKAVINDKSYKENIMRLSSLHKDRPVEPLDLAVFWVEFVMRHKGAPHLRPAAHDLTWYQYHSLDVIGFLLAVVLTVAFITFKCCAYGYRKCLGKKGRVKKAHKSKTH
In words: UGT1A1 inhibition in HLMs (SN-38). The format is in vitro ADME. The note with it: average in triplicate, read-out: IC50, UGT 1A1. Here is the method: (§2) The inhibitory potential of six lignans on six UGT activities was evaluated using the previously developed cocktail method with slight modifications. […] These substrates are known to be selective for each UGT isoforms.

Another data set deals with T4, UGT1A3 (Homo sapiens, UniProt P35503).
T4 construct: pooled HLMs (0.25 mg/mL); tissue XenoTech H2630; host or cells: pooled human liver microsomes, mixed gender
T4 sequence (P35503 29-534): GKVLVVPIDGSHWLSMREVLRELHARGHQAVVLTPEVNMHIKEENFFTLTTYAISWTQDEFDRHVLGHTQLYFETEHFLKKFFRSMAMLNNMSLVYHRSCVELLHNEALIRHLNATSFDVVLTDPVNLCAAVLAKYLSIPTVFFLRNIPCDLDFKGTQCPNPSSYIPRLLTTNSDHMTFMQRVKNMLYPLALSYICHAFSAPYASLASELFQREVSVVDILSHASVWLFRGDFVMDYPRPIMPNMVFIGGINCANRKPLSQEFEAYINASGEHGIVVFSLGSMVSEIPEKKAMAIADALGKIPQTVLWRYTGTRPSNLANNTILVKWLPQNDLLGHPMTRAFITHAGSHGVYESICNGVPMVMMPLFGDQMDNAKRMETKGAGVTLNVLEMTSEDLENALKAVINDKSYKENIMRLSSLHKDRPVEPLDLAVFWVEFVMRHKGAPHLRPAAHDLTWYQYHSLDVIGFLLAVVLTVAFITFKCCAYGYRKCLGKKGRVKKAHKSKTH
In words: UGT1A3 inhibition in HLMs (chenodeoxycholic acid). The data set is classed as in vitro ADME. The note with it: average in triplicate, read-out: IC50, UGT 1A3. As to the method: as §2

In another data set the target is T5, UGT1A6 (Homo sapiens, UniProt P19224).
T5 construct: pooled HLMs (0.25 mg/mL); tissue XenoTech H2630; host or cells: pooled human liver microsomes, mixed gender
T5 sequence (P19224 27-532): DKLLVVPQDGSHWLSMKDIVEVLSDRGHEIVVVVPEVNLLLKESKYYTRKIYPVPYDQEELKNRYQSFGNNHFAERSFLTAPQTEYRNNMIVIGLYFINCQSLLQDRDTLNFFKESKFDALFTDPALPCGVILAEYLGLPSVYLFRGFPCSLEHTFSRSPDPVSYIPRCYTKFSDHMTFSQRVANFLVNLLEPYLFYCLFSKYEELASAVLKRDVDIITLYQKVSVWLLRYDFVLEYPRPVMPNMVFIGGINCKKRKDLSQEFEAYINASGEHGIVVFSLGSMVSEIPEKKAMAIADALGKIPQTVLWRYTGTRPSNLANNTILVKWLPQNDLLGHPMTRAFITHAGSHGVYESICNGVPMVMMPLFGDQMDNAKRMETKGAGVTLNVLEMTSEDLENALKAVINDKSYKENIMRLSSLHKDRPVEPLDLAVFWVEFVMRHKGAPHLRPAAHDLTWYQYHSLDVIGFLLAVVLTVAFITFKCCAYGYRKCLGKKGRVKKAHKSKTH
In words: UGT1A6 inhibition in HLMs (N-acetylserotonin). The data set is classed as in vitro ADME. The conditions noted are these: average in triplicate, read-out: IC50, UGT 1A6. As to the method: as §2

In another data set the target is CYP2C19 (Homo sapiens, UniProt P33261). In words: CYP2C19 inhibition in HLMs (S-mephenytoin).
CYP2C19, sequence (P33261 whole entry): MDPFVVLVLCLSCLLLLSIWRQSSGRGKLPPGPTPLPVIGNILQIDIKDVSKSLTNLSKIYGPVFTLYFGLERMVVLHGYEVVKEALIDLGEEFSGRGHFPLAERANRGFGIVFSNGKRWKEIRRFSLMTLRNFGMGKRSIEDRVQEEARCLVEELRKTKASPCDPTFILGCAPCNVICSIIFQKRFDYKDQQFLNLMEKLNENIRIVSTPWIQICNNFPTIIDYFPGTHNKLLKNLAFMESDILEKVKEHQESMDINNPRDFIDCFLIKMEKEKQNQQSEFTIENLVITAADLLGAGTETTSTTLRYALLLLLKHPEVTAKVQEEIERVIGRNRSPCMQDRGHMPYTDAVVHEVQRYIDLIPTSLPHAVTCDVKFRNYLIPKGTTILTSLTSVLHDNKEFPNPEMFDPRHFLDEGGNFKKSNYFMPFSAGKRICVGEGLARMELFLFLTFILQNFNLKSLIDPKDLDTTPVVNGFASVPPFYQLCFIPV
Another data set addresses CYP2D6 (Homo sapiens, UniProt P10635). In words: CYP2D6 inhibition in HLMs (dextromethorphan).
A further data set has as its target CYP3A (Homo sapiens, UniProt P08684). In words: CYP3A inhibition in HLMs (midazolam, nifedipine, testosterone).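 On all read-outs here: pooled HLMs at 0.25 mg/mL in phosphate buffer, inhibitor across 0–50 µM, 10 min reaction at 37 °C after preincubation, probe metabolite quantified by LC-MS/MS, triplicate incubations.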 The note with it: pooled human liver microsomes; for IC50 at 10 min: HLMs.
The mark [1] stands for this setting: 30 min pre-incubation with NADPH generating system, read-out: IC50 TDI, CYP2C8.
Where [2] appears, read: reversible inhibition, read-out: IC50 RI, CYP2C8.
[3] abbreviates: 30 min pre-incubation with NADPH generating system, read-out: IC50 TDI, CYP2E1.
The mark [4] stands for this setting: reversible inhibition, read-out: IC50 RI, CYP2E1.
The mark [5] stands for this setting: IC50 TDI, 30 min pre-incubation with NADPH generating system.
Setting [6] is: pH 7.4, IC50, CYP3A activity (across probe substrates), reversible inhibition, probe substrate not singled out.
The mark [7] stands for this setting: pH 7.4, probe midazolam (cocktail set B), IC50 RI, CYP3A (midazolam), midazolam, reversible inhibition.
Where [8] appears, read: pH 7.4, probe midazolam (cocktail set B), IC50 TDI, CYP3A (midazolam), midazolam, 30 min pre-incubation with NADPH generating system.
[9] abbreviates: pH 7.4, probe nifedipine (cocktail set B), IC50 RI, CYP3A (nifedipine), nifedipine, reversible inhibition.
The mark [10] stands for this setting: pH 7.4, probe nifedipine (cocktail set B), IC50 TDI, CYP3A (nifedipine), nifedipine, 30 min pre-incubation with NADPH generating system.
The mark [11] stands for this setting: pH 7.4, probe testosterone (cocktail set B), IC50 RI, CYP3A (testosterone), testosterone, reversible inhibition.
The mark [12] stands for this setting: pH 7.4, probe testosterone (cocktail set B), IC50 TDI, CYP3A (testosterone), testosterone, 30 min pre-incubation with NADPH generating system.

The structures appear in SMILES notation. Like-named read-outs stand apart in the source and are kept apart here. Where only a bound is given, the exact number is not on record here.

CYP2D6, sequence (P10635 whole entry): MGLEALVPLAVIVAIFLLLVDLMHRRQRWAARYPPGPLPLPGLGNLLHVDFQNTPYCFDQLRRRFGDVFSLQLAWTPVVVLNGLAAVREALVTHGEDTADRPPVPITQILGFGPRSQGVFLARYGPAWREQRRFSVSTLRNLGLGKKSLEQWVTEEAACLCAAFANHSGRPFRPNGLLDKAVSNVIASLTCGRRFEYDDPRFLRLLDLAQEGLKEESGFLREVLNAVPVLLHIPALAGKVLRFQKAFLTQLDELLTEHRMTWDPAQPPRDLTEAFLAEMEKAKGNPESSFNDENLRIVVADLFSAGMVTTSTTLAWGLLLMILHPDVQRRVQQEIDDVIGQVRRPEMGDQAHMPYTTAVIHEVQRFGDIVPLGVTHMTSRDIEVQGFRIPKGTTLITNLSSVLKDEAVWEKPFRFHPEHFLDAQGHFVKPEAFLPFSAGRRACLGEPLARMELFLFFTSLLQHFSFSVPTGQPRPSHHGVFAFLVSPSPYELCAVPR
CYP3A, sequence (P08684 2-503): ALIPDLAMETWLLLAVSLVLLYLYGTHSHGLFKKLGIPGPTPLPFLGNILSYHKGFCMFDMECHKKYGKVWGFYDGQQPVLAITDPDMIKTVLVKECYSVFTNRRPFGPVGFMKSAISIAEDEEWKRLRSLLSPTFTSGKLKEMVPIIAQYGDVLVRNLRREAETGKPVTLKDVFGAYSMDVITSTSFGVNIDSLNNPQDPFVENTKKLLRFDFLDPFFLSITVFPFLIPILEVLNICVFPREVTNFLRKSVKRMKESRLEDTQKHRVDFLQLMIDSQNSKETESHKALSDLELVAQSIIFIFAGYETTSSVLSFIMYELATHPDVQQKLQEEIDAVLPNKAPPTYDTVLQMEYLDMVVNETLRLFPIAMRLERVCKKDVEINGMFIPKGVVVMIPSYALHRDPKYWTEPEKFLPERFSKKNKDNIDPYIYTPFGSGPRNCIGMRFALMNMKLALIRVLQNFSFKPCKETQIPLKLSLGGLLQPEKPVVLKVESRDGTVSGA
T2 sequence (P05181 whole entry): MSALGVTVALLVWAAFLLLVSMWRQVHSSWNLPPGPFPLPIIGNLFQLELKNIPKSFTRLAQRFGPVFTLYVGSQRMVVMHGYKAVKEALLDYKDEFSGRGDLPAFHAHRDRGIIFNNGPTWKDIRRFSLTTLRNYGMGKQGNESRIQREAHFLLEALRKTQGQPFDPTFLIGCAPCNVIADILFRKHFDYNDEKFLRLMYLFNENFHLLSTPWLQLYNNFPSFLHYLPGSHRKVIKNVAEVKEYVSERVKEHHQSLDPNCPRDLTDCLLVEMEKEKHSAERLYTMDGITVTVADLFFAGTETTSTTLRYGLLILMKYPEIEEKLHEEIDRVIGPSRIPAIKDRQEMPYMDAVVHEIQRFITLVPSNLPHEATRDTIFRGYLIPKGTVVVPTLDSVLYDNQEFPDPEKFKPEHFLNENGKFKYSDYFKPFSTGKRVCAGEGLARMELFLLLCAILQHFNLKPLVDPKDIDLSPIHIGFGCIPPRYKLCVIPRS
Procedure for CYP2C19: (§3) Lignans were first dissolved in methanol. The final organic solvent concentration in the incubation media was ≤1.0% (v/v). The microsomal incubation was conducted using two cocktail sets containing non-interactive substrates: set A containing phenacetin, bupropion, amodiaquine, diclofenac, S-mephenytoin, and dextromethorphan as substrates for CYP1A2, CYP2B6, CYP2C8, CYP2C9, CYP2C19, and CYP2D6, respectively; and set B containing coumarin and chlorzoxazone as substrates for CYP2A6 and CYP2E1, and midazolam, nifedipine, and testosterone as substrates for CYP3A4 (Table 1). These substrates are known to be selective for each P450 isoforms. Incubation mixtures containing potassium phosphate buffer (0.1 M, pH 7.4), pooled HLMs (0.25 mg/mL), P450 probe substrate cocktails, and lignan (0~50 μM) were pre-incubated at 37 °C (5 min). Following pre-incubation, an NADPH generating system (1.3 mM NADP^+, 3.3 mM G6P, 1 unit/mL G6PDH, and 3.3 mM MgCl2) was added to initiate the reaction, and further incubated for 10 min. The reaction was quenched with 50 μL of cold acetonitrile containing internal standard (IS; 7 nM trimipramine). After centrifugation at 14,000 rpm (5 min at 4 °C), aliquots of supernatants were filtered through a 0.2 μm membrane filter and were measured by liquid chromatography-tandem mass spectrometry (LC-MS/MS). All microsomal incubations were performed in triplicate.
Procedure for CYP2D6: as §3
Procedure for CYP3A: as §3

Take `COc1cc2c(c(OC)c1OC)-c1c(cc3c(c1OC)OCO3)C[C@H](C)[C@H](C)C2` [Gomisin N, gomisin N]: the IC50 is 9.9 µM at CYP2C8 (setting [1]); 31.7 µM at CYP2C8 (setting [2]); 23.6 µM on CYP2E1 (setting [3]); more than 50 µM at CYP2E1 (setting [4]); more than 50 µM at UGT1A1; 26.9 µM at UGT1A3. Moreover, the IC50 was more than 50 µM at UGT1A6; 10.4 µM against CYP2C19 (IC50 RI, reversible inhibition); 3.5 µM against CYP2C19 (setting [5]); 42 µM on CYP2D6 (IC50 RI, reversible inhibition); more than 50 µM on CYP2D6 (setting [5]). Also, the IC50 shift at 10 min was 3.2 on CYP2C8 (human, pooled human liver microsomes, pH 7.4, probe amodiaquine, RI/TDI fold shift); more than 2.1 at CYP2E1 (human, pooled human liver microsomes, pH 7.4, probe chlorzoxazone (cocktail set B), RI/TDI fold shift); 2.7 on CYP3A (pH 7.4, probe midazolam (cocktail set B)); 2.4 at CYP3A (pH 7.4, probe nifedipine (cocktail set B)); 2.4 at CYP3A (pH 7.4, probe testosterone (cocktail set B)). For the same compound, the IC50 at 10 min against CYP3A (setting [6]) is 1.3 to 4.5 µM; against CYP3A (setting [7]), 4.5 µM; against CYP3A (setting [8]) it was 1.7 µM; at CYP3A (setting [9]) it was 1.4 µM; on CYP3A (setting [10]), 0.61 µM; against CYP3A (setting [11]), 1.3 µM. In addition, at CYP3A (setting [12]), the IC50 at 10 min was found to be 0.55 µM.

For `COc1cc2c(c(OC)c1OC)-c1c(cc3c(c1OC)OCO3)C[C@H](C)[C@](C)(O)[C@H]2OC(=O)c1ccccc1` [Gomisin C, gomisin C], the IC50 at CYP2C8 (setting [1]) was 5.8 µM; on CYP2E1 (setting [3]), 24.4 µM; on CYP2E1 (setting [4]) it was more than 50 µM; at UGT1A1, 24 µM; at UGT1A3 it was 15 µM; on UGT1A6, more than 50 µM. Besides, the IC50 on CYP2C19 (IC50 RI, reversible inhibition) is 16.3 µM; against CYP2C19 (setting [5]), 20.4 µM; at CYP2D6 (IC50 RI, reversible inhibition) it was more than 50 µM; against CYP2D6 (setting [5]), more than 50 µM. Besides, the IC50 at 10 min was 0.19 to 0.3 µM against CYP3A (setting [6]); 0.3 µM against CYP3A (setting [7]); 0.1 µM at CYP3A (setting [8]); 0.26 µM against CYP3A (setting [9]); 0.09 µM on CYP3A (setting [10]); 0.19 to 0.28 µM on CYP3A (setting [11]). Besides, half-maximal inhibition against CYP3A (setting [12]) (IC50 at 10 min) required 0.09 µM.

On to `COc1c2c(cc3c1-c1c(cc4c(c1OC)OCO4)C[C@H](C)[C@H](C)C3)OCO2` [Wuweizisu C, wuweizisu C], for which the IC50 is 14.6 µM on CYP2C8 (setting [1]); 21 µM at CYP2C8 (setting [2]); 25.2 µM on CYP2E1 (setting [3]); more than 50 µM at CYP2E1 (setting [4]); more than 50 µM on UGT1A1; more than 50 µM at UGT1A3. In addition, the IC50 at UGT1A6 is more than 50 µM; on CYP2C19 (IC50 RI, reversible inhibition), 2.7 µM; against CYP2C19 (setting [5]), 1.5 µM; against CYP2D6 (IC50 RI, reversible inhibition), 20.3 µM; against CYP2D6 (setting [5]), 28.2 µM. Also, the IC50 at 10 min at CYP3A (setting [7]) is 25.9 µM; against CYP3A (setting [8]), 2.5 µM; on CYP3A (setting [9]), 5.6 µM; on CYP3A (setting [11]) it was 3.6 µM.

Turning to `COc1cc2c(c(OC)c1OC)-c1c(cc(OC)c(OC)c1OC)C[C@](C)(O)[C@@H](C)C2` [Schisandrin, schisandrin], the IC50 was more than 50 µM on CYP2C8 (setting [1]); 22 µM on CYP2C8 (setting [2]); 36 µM at CYP2E1 (setting [3]); 4.2 µM on CYP2E1 (setting [4]); more than 50 µM on UGT1A1; more than 50 µM at UGT1A3. Besides, the IC50 at UGT1A6 was more than 50 µM; against CYP2C19 (IC50 RI, reversible inhibition) it was 5.3 µM; against CYP2C19 (setting [5]), 46.1 µM; against CYP2D6 (IC50 RI, reversible inhibition), 40.2 µM; against CYP2D6 (setting [5]) it was more than 50 µM. For the same compound, the IC50 at 10 min on CYP3A (setting [6]) is not above 16 µM; on CYP3A (setting [7]) it was 10.5 µM; at CYP3A (setting [8]) it was 35 µM; against CYP3A (setting [9]) it was 16 µM; against CYP3A (setting [10]) it was 43.3 µM; on CYP3A (setting [11]), 5.8 µM. Also, the IC50 at 10 min against CYP3A (setting [12]) stood at 20.6 µM.
